The target in the test is human Kv1.5 potassium channel alpha subunit (Homo sapiens, UniProt P22460). Kind of test: High throughput Kv1.5 planar patch clamp assay (Kv1.5 HT-clamp, IonWorks HT). The format is cell-based. Also on record: Kv1.5 HT-clamp % inhibition: dose or concentration left out as unconfirmed. The settings on record: for IC50: CHO cells stably expressing human Kv1.5, 27th depolarization to +40 mV in 5 Hz train. An excerpt:
The high throughput Kv1.5 planar patch clamp assay is a systematic primary screen. It confirms activity and provides a functional measure of the potency of agents that specifically affect Kv1.5 potassium channels. Kiss et al. (Assay and Drug Dev. Tech., 1(1-2):127-135, 2003) and Schroeder et al. (J. of Biomol. Screen., 8(1); 50-64, 2003) describe the use of this instrument for Kv1.5 as well as other voltage gated ion channels.
Chinese hamster ovary cells (CHO) stably expressing the human Kv1.5 potassium channel alpha subunit, cloned from human heart, are grown to 90-100% confluence in Ham's F12 medium supplemented with 10% FBS, 100 U/ml penicillin, 100 μg/ml streptomycin, 1000 μg/ml G-418 sulfate. Cells are subcultured by treatment with Versene, then suspended in phosphate-buffered saline (PBS) and centrifuged The cell pellet is re-suspended in PBS and the resulting suspension placed in the cell reservoir of the IonWorks™ HT instrument.
Electrophysiological recordings are performed with intracellular solution containing (mM): K-gluconate 100, KCl 40, MgCl2 3.2, EGTA 3, N-2-hydroxylethylpiperazine-N^1-2-ethanesulphonic acid (HEPES) 5, adjusted to pH 7.3. Amphotericin (Sigma) is prepared as 30 mg/ml stock solution and diluted to a final working concentration of 0.1 mg/ml in internal buffer solution. The external solution is Dulbecco's PBS (Invitrogen) and contains (mM): CaCl2 0.90, KCl 2.67, K3PO4 1.47, MgCl2 0.50, NaCl 138, Na3PO4 8.10 and has a pH of 7.4. All compounds are prepared as 10 mM stock solutions in DMSO. Compounds are diluted into external buffer, then transferred from the drug plate to the Patchplate during the experiment (final DMSO concentration <0.66% vol.).
Kv1.5 ionic currents are recorded at room temperature. Membrane currents are amplified (RMS ˜10 pA) and sampled at 10 kHz. Leak subtraction was performed in all experiments by applying a 160 ms hyperpolarizing (10 mV) pre-pulses 200 ms before the test pulses to measure leak conductance. The patch clamp stimulus protocol is as follows: • 1. Patchplate wells are loaded with 3.5 μL of external buffer. • 2. Planar micropipette hole resistances (Rp) is determined by applying a 10 mV, 160 ms potential difference across each hole (Hole test). • 3. Cells are pipetted into the Patchplate and form high resistance seals with the 1-2 μm holes at the bottom of each Patchplate well. A seal test scan is performed to determine how many of the Patchplate wells have cells that have formed seals. • 4. In order to gain electrical access to the cells, intracellular solution containing amphotericin is circulated for 4 minutes on the bottom side of the Patchplate. • 5. Pre-compound addition test pulse is applied to each well on the Patchplate. Protocol: Cells are voltage clamped at a membrane holding potential of −80 mV for 15 seconds. This is followed by application of a 5 Hz stimulus train (27×150 ms depolarizations to +40 mV). The membrane potential steps to +40 mV evoke outward (positive) ionic currents. • 6. Compound is added to each well of the Patchplate. Compounds are allowed to incubate for 5 minutes. • 7. Post-compound addition test pulse protocol is applied. Protocol: Cells are voltage clamped at a membrane holding potential of −80 mV for 15 seconds. This is followed by application of a 5 Hz stimulus train (27×150 ms depolarizations to +40 mV).
Data analysis is conducted off-line. Paired comparisons between pre-drug and post-drug additions are used to determine the inhibitory effect of each compound. % inhibition of the peak control current during the 27th depolarization to +40 mV (in the 5 Hz train) is plotted as a function of antagonist concentration. The concentrations of drug required to inhibit current by 50% (IC50) are determined by fitting of the Hill equation to the concentration response data: % of Control=100×(1+([Drug]/IC50)^p)^−1 […]
Background: Patch clamp records ionic current or voltage across a cell membrane.

The values that follow come from patent publication US7973059B2, “Potassium channel inhibitors” (Merck Sharp & Dohme Corp., priority 2005, dated 2011).

Usually IC50 stands for the concentration needed to halve the response being measured. A word on the inhibition: it is the percentage by which the read-out fell short of the control.

human Kv1.5 potassium channel alpha subunit, sequence (P22460 whole entry): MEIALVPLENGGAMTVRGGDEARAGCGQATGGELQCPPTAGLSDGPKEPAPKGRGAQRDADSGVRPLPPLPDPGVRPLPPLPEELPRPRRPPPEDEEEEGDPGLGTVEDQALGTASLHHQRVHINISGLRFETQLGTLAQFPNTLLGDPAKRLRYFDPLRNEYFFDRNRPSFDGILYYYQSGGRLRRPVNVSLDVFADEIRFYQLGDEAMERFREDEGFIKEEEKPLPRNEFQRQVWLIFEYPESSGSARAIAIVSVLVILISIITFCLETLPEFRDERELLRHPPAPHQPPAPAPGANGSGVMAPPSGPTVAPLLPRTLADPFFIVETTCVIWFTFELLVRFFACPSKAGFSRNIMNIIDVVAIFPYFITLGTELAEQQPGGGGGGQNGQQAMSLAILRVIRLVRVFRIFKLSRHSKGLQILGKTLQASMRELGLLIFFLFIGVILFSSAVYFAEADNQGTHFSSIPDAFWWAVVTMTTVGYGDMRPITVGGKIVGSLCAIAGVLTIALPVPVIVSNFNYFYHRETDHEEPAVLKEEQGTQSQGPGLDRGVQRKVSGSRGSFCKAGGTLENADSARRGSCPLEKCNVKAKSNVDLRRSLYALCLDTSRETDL

`OC(c1cccnc1-c1cccc(Cl)c1Cl)C(c1cccnc1)c1cccnc1` (single isomer, unassigned) [Example 6 Enantiomer A, 1-[2-(2,3-dichlorophenyl)pyridin-3-yl]-2,2-dipyridin-3-ylethanol] displayed an IC50 of 5210 nM.

The compound `OC(c1cccnc1-c1cccc(C(F)(F)F)c1)C(c1cccnc1)c1cccnc1` (single isomer, unassigned) [Example 2 Enantiomer B, 2,2-dipyridin-3-yl-1-{2-[3-(trifluoromethyl)phenyl]pyridin-3-yl}ethanol] gave an IC50 of 8220 nM.

Turning to `OC(c1cccnc1-c1cccc(Cl)c1Cl)C(c1cccnc1)c1cccnc1` (racemic) [Example 6 Racemic, racemic 1-[2-(2,3-dichlorophenyl)pyridin-3-yl]-2,2-dipyridin-3-ylethanol], the half-maximal inhibitory concentration (IC50) was 110 nM.

With `OC(c1cccnc1-c1cccc(C(F)(F)F)c1)C(c1cccnc1)c1cccnc1` (single isomer, unassigned) [Example 2 Enantiomer A, 2,2-dipyridin-3-yl-1-{2-[3-(trifluoromethyl)phenyl]pyridin-3-yl}ethanol], half-maximal inhibition (IC50) required 290 nM.

As to `OC(c1cccnc1-c1cccc(Cl)c1Cl)C(c1cccnc1)c1cccnc1` (single isomer, unassigned) [Example 6 Enantiomer B, 1-[2-(2,3-dichlorophenyl)pyridin-3-yl]-2,2-dipyridin-3-ylethanol], the IC50 was 236 nM.

`OC(c1cccnc1-c1cc(Cl)ccc1Cl)C(c1cccnc1)c1cccnc1` (single isomer, unassigned) [Example 5 Enantiomer A, 1-[2-(2,5-dichlorophenyl)pyridin-3-yl]-2,2-dipyridin-3-ylethanol] returned an IC50 of 3200 nM.

The compound `OC(c1cccnc1-c1cc(Cl)cc(Cl)c1)C(c1cccnc1)c1cccnc1F` (single isomer, unassigned) [Example 3 Isomer 1, Enantiomer A, 1-[2-(3,5-dichlorophenyl)pyridin-3-yl]-2-(2-fluoropyridin-3-yl)-2-pyridin-3-ylethanol] gave a concentration for half-maximal inhibition (IC50) of 96 nM.

Compound `OC(c1cccnc1-c1ccccc1Cl)C(c1cccnc1)c1cccnc1` (racemic) [Example 4 Racemic, racemic 1-[2-(2-chlorophenyl)pyridin-3-yl]-2,2-dipyridin-3-ylethanol] displayed a 50% inhibitory concentration (IC50) of 422 nM.

`OC(c1cccnc1-c1ccccc1Cl)C(c1cccnc1)c1cccnc1` (single isomer, unassigned) [Example 4 Enantiomer B, 1-[2-(2-chlorophenyl)pyridin-3-yl]-2,2-dipyridin-3-ylethanol] yielded an IC50 of 25000 nM.

Take `OC(c1cccnc1-c1cc(Cl)cc(Cl)c1)C(c1cccnc1)c1cccnc1F` (single isomer, unassigned) [Example 3 Isomer 2, Enantiomer A, 1-[2-(3,5-dichlorophenyl)pyridin-3-yl]-2-(2-fluoropyridin-3-yl)-2-pyridin-3-ylethanol]: the 50% inhibitory concentration (IC50) came to 154 nM.

`OC(c1cccnc1-c1cc(Cl)ccc1Cl)C(c1cccnc1)c1cccnc1` (single isomer, unassigned) [Example 5 Enantiomer B, 1-[2-(2,5-dichlorophenyl)pyridin-3-yl]-2,2-dipyridin-3-ylethanol]: 75 nM corresponded to half-maximal inhibition (IC50).

The compound `OC(c1cccnc1-c1cc(Cl)cc(Cl)c1)C(c1cccnc1)c1cccnc1F` (single isomer, unassigned) [Example 3 Isomer 2, Enantiomer B, 1-[2-(3,5-dichlorophenyl)pyridin-3-yl]-2-(2-fluoropyridin-3-yl)-2-pyridin-3-ylethanol] returned an inhibition at 10 µM (at 10000 nM) of 89%.

Turning to `OC(c1cccnc1-c1ccccc1Cl)C(c1cccnc1)c1cccnc1` (single isomer, unassigned) [Example 4 Enantiomer A, 1-[2-(2-chlorophenyl)pyridin-3-yl]-2,2-dipyridin-3-ylethanol], the IC50 is 171 nM.

`OC(c1cccnc1-c1cc(Cl)cc(Cl)c1)C(c1cccnc1)c1cccnc1` (racemic) [Example 1 Racemic, racemic 1-[2-(3,5-dichlorophenyl)pyridin-3-yl]-2,2-dipyridin-3-ylethanol] showed a half-inhibitory concentration (IC50) of 116 nM.

With `OC(c1cccnc1-c1cccc(C(F)(F)F)c1)C(c1cccnc1)c1cccnc1` (racemic) [Example 2 Racemic, racemic 2,2-dipyridin-3-yl-1-{2-[3-(trifluoromethyl)-phenyl]pyridin-3-yl}ethanol], the IC50 worked out at 266 nM.

As for `O[C@H](c1cccnc1-c1cc(Cl)cc(Cl)c1)C(c1cccnc1)c1cccnc1` [(S)-1-[2-(3,5-dichlorophenyl)pyridin-3-yl]-2,2-dipyridin-3-ylethanol], inhibition was half-maximal at 2920 nM (IC50).

On to `O[C@@H](c1cccnc1-c1cc(Cl)cc(Cl)c1)C(c1cccnc1)c1cccnc1` [(R)-1-[2-(3,5-dichlorophenyl)pyridin-3-yl]-2,2-dipyridin-3-ylethanol], for which half-maximal inhibition (IC50) was put at 90 nM.

`OC(c1cccnc1-c1cc(Cl)ccc1Cl)C(c1cccnc1)c1cccnc1` (racemic) [Example 5 Racemic, racemic 1-[2-(2,5-dichlorophenyl)pyridin-3-yl]-2,2-dipyridin-3-ylethanol] yielded an IC50 of 77 nM.

With `OC(c1cccnc1-c1cc(Cl)cc(Cl)c1)C(c1cccnc1)c1cccnc1F` (single isomer, unassigned) [Example 3 Isomer 1, Enantiomer B, 1-[2-(3,5-dichlorophenyl)pyridin-3-yl]-2-(2-fluoropyridin-3-yl)-2-pyridin-3-ylethanol], the “Kv1.5 HT-clamp % inhibition” value was 72%.
